Experimental data from paper PMC7724566, “Prospects for Clinical Development of Stat5 Inhibitor IST5-002: High Transcriptomic Specificity in Prostate Cancer and Low Toxicity In Vivo” (Cancers, 2020).

Key:
[1] = target: JAK1 (Homo sapiens, UniProt P23458); assay: Cell-based tyrosine phosphorylation of Jak kinases (IP/immunoblot); set-up: endogenous in cells; host or cells: DU145 and CWR22Pc; conditions: 6 µM, 6 h
Source text: (§1) Figure 5 Both IST5 and IST5-M suppress dimerization of Stat5 with similar efficacies in prostate cancer cells. (A), IST5 and IST5-M inhibit equally potently dimerization of Stat5 in native-gel-based Stat5 dimerization assay. CWR22Rv1 cells were transfected with STAT5A-eYFP (Stat5 wild type), STAT5A-N642H-eYFP (constitutive activated Stat5 by N642H mutation, as a positive control) or STAT3-eYFP (Stat3 wild type, as a negative control) constructs for 3 days. CWR22Rv1 cells were serum-starved for 16 h, pretreated with vanadate (1 mM) for 2 h, followed by treatment with vehicle, IST5 and IST5-M (1 µM) for 6 h and stimulation with Prl (10 nM) for 1 h. Dimerization of Stat5 was analyzed by detection of the eYFP fluorescence of the native Coomassie gel. (B), IST5 and IST5-M inhibited cytokine-induced dimerization of Stat5 with high efficacy in PC cells. PC-3 cells were co-transfected with pCMV-3Flag-Stat5a, pCMV-3Myc-Stat5a, and pPrlR plasmids. Cells were serum-starved for 16 h, pretreated with IST5, IST5-M or vehicle at indicated concentrations for 2 h, followed by stimulation with Prl (10 nM) for 30 min. Anti-MYC mAb was utilized to immunoprecipitate the MYC-tagged Stat5a and blotted with anti-FLAG mAb or anti-MYC mAb, as indicated. […] (C), densitometric analyses of the Stat5 dimerization data based on co-immunoprecipitations and immunoblotting in (B). […] Prostate cancer cells were treated with IST5 (6 µM) or vehicle for 6 h. Jak1, Jak2, Jak3 and Tyk2 were immunoprecipitated and blotted with anti-phospho-tyrosine, Jak1, Jak2, Jak3 and Tyk2 antibodies. Whole cell lysates (WCL) were immunoblotted for actin. (E), differences in posttranslational modifications were detected between native and recombinant STAT5a using mass spectrometry. Native STAT5a from CWR22Rv1 cells and recombinant STAT5a from E. coli were gel-purified, digested using trypsin, and analyzed by bottom-up mass spectrometry. Native full-length STAT5a (blue) is show with recombinant STAT5A highlighted (red). Sites of acetylation and phosphorylation from the respective sources are noted including two previously published sites of phosphorylation (asterisk).
(§2) Given that IST5 suppresses phosphorylation of Stat5 in PC cells, it is possible that IST5 inhibits the kinase(s) responsible for Stat5 phosphorylation and activation in PC cells. To evaluate if IST5 affects kinase activity in cancer cells, we tested kinase inhibitory activity of IST5 in two custom-tailored panels including 54 relevant kinases (Table 1), including Jak1, Jak2, Jak3, Tyk2, Abl1, Abl2, Lck, Fyn, Src and TrkB/C. In addition, we further tested if IST5 inhibits tyrosine phosphorylation of Jak1, Jak2, Jak3 or Tyk2 using a cell-based assay (Figure 5D), where phosphorylation of the kinase is indicative of enzymatic kinase activity. DU145 and CWR22Rv1 cells were treated with IST5 (6 µM) for 6 h followed by immunoprecipitation of Jak1, Jak2, Jak3 and Tyk2 and immunoblotting with anti-phospho-tyrosine antibody. […] Collectively, these findings indicate that the inhibitory effect of IST5 on Stat5 phosphorylation in cancer cells is not due to inhibition of Jak2 or other key kinases including Jak1, Jak3, Tyk2, Src, Lck, Fyn, TrkB/C, Abl1 or Abl2 (Table 1, Figure 5D).
(§3) Cell pellets were solubilized in the lysis buffer (10 mM Tris-HCl (pH 7.6), 5 mM EDTA, 50 mM sodium chloride, 30 mM sodium pyrophosphate, 50 mM sodium fluoride, 1 mM sodium orthovanadate, 1% Triton X-100, 1 mM phenylmethylsulfonyl fluoride, 5 µg/mL aprotinin, 1 µg/mL pepstatin A and 2 µg/mL leupeptin), and protein concentrations of clarified cell lysates were determined by a simplified Bradford method (Bio-Rad, Hercules, CA, USA). The whole cell lysates were immunoprecipitated with polyclonal antibodies (Table S1) followed by incubation with protein A-Sepharose beads (GE Healthcare, Chicago, IL, USA). […]

[2] = target: T1, JAK3 (Homo sapiens, UniProt P52333); assay: as above; set-up: endogenous in cells; host or cells: DU145 and CWR22Pc; conditions: 6 µM, 6 h
T1 sequence (P52333 1-1124): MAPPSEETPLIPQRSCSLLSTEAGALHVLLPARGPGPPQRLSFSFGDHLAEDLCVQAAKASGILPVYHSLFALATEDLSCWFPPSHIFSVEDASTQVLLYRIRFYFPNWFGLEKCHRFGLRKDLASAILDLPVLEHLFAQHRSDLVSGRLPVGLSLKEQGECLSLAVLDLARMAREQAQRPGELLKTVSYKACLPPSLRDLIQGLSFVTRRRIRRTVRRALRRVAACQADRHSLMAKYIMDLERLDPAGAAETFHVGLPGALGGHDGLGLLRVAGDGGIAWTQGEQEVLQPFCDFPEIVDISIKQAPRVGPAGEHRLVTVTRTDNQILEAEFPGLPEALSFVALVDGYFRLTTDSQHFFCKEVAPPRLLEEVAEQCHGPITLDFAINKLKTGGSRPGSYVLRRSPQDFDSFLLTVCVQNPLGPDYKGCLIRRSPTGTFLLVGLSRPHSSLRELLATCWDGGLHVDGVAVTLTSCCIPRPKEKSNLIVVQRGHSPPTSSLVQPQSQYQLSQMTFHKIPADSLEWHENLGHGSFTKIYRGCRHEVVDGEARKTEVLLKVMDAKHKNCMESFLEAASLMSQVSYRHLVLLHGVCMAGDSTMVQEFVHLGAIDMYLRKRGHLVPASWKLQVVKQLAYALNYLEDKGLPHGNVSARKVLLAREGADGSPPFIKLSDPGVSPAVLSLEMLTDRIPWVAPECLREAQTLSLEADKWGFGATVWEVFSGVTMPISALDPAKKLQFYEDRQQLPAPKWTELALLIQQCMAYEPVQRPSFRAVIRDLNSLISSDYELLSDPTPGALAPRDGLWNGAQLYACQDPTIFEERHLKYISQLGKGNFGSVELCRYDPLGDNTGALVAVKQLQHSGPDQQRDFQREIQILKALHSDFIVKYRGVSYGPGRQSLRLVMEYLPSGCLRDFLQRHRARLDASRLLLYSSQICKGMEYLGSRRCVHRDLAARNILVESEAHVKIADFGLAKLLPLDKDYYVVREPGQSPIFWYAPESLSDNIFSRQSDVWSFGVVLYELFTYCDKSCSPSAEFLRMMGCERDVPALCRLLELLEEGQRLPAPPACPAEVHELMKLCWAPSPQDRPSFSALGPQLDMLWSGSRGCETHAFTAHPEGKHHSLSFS
Source text: as §1, §2, §3

Sequence of JAK1 (P23458 whole entry): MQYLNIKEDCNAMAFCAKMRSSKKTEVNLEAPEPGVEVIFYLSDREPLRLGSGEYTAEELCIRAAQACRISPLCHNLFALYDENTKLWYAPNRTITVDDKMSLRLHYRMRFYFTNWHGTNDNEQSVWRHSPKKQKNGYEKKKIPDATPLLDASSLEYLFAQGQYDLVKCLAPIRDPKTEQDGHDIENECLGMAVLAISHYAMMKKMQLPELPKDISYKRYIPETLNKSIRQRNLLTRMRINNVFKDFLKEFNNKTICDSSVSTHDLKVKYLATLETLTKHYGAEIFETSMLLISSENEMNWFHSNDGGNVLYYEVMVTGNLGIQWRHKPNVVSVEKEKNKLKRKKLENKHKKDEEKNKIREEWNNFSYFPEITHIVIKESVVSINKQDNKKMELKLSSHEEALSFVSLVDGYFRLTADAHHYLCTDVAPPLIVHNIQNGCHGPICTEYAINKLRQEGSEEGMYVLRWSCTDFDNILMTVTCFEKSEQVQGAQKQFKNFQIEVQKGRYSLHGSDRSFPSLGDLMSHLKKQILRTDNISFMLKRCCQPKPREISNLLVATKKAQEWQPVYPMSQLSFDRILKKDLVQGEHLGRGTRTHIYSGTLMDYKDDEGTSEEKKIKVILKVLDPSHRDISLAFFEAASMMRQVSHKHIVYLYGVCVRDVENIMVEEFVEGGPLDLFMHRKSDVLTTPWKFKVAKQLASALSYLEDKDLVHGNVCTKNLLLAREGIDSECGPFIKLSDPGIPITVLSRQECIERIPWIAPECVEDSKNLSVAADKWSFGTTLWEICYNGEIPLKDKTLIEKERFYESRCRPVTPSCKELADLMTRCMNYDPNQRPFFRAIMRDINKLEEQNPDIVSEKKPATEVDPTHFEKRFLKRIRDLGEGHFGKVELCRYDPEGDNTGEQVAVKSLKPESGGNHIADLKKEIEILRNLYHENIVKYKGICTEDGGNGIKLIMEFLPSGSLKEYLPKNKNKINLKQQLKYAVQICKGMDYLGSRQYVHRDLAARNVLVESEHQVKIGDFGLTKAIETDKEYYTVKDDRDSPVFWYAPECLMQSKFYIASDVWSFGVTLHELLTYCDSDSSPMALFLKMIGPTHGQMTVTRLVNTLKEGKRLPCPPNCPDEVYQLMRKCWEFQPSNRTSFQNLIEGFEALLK

O=P(O)(O)OCC1OC(n2cnc3c(NCc4ccccc4)ncnc32)C(O)C1O (stereo not shown) [IST5]
did not alter: phosphorylation of Jak1 ([1]; CWR22Pc cells) | phosphorylation of Jak1 ([1]; DU145 cells) | phosphorylation of Jak3 ([2]; CWR22Pc cells) | phosphorylation of Jak3 ([2]; DU145 cells)
